Results: paper PMC11790914, “Chemogenomics for steroid hormone receptors (NR3)” (Communications Chemistry, 2025)
Several values for one entry are separate records, joined by “and”; a condition that tells them apart may be missing. Identical values can stand only once.

Assays:
[1] = system: HEK293T cells; experiment: Cytotoxicity: necrosis induction (red fluorescent dye for permeable plasma membranes); type: cell-based; conditions: 1 µM, 24 h, necrotic cell count normalized to 0.1% DMSO, single replicates;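 further: compounds applied in DMEM high glucose with 0.1% FCS and 0.1% DMSO, necrotic HEK293T cells counted by red staining of cells whose plasma membranes had become permeable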
[2] = target: T1, ABL1 (Homo sapiens, UniProt P00519); experiment: Liability panel screening by DSF: ABL1; type: binding; conditions: DSF, 20 µM, n=2; read-out: Mean ΔTM ABL1
T1 construct: made in house
T1 sequence (P00519 whole entry, species assumed): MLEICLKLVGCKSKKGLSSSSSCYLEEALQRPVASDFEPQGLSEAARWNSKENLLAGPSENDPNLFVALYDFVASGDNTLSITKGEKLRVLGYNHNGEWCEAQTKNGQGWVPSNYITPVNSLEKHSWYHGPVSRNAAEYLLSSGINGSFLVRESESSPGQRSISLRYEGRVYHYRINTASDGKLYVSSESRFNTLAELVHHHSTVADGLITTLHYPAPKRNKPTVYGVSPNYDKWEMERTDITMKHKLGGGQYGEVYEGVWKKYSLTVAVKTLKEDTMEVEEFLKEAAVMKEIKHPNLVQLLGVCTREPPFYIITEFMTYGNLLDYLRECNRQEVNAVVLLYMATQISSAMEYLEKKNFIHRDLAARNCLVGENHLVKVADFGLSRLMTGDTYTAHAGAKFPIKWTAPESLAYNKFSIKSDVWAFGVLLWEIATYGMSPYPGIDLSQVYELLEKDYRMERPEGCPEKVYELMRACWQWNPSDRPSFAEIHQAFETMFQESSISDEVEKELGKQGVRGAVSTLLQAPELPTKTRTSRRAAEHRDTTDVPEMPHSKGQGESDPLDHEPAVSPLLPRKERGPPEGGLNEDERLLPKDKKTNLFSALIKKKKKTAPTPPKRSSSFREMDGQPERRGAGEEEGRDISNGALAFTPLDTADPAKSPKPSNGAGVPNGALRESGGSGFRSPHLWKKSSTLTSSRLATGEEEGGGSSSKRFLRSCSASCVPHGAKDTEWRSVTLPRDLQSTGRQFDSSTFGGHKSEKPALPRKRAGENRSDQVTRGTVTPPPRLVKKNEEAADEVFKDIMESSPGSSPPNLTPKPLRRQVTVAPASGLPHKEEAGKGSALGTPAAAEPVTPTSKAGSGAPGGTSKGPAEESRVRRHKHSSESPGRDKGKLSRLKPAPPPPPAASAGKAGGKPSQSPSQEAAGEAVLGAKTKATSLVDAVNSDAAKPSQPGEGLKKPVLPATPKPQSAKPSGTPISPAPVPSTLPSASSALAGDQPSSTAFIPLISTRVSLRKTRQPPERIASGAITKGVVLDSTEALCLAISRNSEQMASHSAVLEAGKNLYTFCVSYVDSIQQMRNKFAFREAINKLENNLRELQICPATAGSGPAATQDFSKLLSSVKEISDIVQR
Procedure: (§1) Reference ligands are listed in the methods section.
(§2) In-house produced recombinantly expressed proteins[62] of the liability panel targets were diluted in a buffer containing 10 mM HEPES (pH 7.5) and 500 mM NaCl to a concentration of 2 µM. SYPRO Orange (Invitrogen, Carlsbad, California, USA; #S6650) as a fluorescence probe was added at a 1:1000 dilution to the proteins. […] Temperature-dependent unfolding profiles were measured on a QuantStudio™ 5 real-time PCR machine (Thermo Fisher Scientific, Waltham, Massachusetts, USA; #A28140). […] The temperature was increased 3 °C per minute to a maximum temperature of 85 °C. Experiments were run as technical duplicates. […] Data were analyzed with the internal Thermal Shift Software (version 1.4, Thermo Fisher Scientific) using the Boltzmann equitation to determine the inflection point of the transition curve. Differences in melting temperature are given as ∆Tm in K. […]
(§3) scanning fluorimetry (DSF).
(§4) a concentration of 20 µM.

[3] = target: T2, AURKA (Homo sapiens, UniProt O14965); experiment: Liability panel screening by DSF: AURKA; type: binding; conditions: DSF, 20 µM, n=2; read-out: Mean ΔTM AURKA
T2 construct: made in house
T2 sequence (O14965 1-403): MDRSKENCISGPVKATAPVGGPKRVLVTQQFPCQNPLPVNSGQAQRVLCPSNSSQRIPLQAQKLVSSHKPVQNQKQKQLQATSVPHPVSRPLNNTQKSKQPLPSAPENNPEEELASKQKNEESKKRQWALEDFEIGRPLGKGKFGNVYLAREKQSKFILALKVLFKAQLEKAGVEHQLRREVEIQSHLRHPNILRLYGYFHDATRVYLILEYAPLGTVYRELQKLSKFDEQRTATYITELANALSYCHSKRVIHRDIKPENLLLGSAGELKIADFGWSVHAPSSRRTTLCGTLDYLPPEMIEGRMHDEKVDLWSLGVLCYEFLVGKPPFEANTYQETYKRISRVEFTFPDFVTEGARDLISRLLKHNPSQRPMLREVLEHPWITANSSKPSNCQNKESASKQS
Procedure: as §1, §2, §3, §4

[4] = target: T3, CDK2 (Homo sapiens, UniProt P24941); experiment: Liability panel screening by DSF: CDK2; type: binding; conditions: DSF, 20 µM, n=2; read-out: Mean ΔTM CDK2
T3 construct: made in house
Procedure: as §1, §2, §3, §4

[5] = target: T4, FGFR3 (Homo sapiens, UniProt P22607); experiment: Liability panel screening by DSF: FGFR3; type: binding; conditions: DSF, 20 µM, n=2; read-out: Mean ΔTM FGFR3
T4 construct: made in house
T4 sequence (P22607 23-806, species assumed): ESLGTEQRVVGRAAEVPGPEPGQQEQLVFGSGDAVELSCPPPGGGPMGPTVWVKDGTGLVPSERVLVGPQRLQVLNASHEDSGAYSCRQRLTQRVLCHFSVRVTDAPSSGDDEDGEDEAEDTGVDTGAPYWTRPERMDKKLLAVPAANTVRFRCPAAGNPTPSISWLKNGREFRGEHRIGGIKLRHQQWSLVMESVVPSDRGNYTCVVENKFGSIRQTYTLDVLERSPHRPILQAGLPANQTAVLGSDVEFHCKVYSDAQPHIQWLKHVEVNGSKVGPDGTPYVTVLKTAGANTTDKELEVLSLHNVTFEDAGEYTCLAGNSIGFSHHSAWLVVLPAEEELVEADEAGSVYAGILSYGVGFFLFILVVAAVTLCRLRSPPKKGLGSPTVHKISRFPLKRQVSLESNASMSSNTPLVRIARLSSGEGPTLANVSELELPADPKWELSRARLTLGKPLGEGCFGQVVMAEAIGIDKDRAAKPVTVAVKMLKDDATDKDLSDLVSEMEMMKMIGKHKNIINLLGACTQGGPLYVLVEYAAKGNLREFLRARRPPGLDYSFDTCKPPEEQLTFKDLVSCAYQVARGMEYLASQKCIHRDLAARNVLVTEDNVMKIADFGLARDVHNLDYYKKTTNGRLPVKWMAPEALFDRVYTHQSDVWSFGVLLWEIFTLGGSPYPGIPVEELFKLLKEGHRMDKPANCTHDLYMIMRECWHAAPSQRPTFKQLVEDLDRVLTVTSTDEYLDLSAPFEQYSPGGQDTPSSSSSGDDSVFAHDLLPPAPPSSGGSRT
Procedure: as §1, §2, §3, §4

[6] = target: T5, GSK3B (Homo sapiens, UniProt P49841); experiment: Liability panel screening by DSF: GSK3B; type: binding; conditions: DSF, 20 µM, n=2; read-out: Mean ΔTM GSK3B
T5 construct: made in house
T5 sequence (P49841 whole entry, species assumed): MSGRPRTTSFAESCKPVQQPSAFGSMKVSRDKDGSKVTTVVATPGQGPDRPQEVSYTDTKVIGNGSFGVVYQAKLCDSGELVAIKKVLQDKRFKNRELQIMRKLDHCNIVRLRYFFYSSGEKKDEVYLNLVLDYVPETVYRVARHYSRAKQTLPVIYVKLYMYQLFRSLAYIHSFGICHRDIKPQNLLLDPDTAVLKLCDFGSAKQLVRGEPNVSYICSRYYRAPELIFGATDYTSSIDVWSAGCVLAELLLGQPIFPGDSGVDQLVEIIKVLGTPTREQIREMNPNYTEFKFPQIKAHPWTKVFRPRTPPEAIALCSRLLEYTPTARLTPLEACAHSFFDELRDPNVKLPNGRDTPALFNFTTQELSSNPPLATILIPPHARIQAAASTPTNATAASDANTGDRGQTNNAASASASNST

[7] = target: T6, BRD4 (Homo sapiens, UniProt O60885); experiment: Liability panel screening by DSF: BRD4; type: binding; conditions: DSF, 20 µM, n=2; read-out: Mean ΔTM BRD4
T6 construct: This panel comprised ten highly ligandable kinases and bromodomains; made in house
Procedure: as §1, §2, §3, §4

[8] = target: T7, BRPF1 (Homo sapiens, UniProt P55201); experiment: Liability panel screening by DSF: BRPF1; type: binding; conditions: DSF, 20 µM, n=2; read-out: Mean ΔTM BRPF1
T7 construct: This panel comprised ten highly ligandable kinases and bromodomains; made in house
T7 sequence (P55201 628-732 limits assumed): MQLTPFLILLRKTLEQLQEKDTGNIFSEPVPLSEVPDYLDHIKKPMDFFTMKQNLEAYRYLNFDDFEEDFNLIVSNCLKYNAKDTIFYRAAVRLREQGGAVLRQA
Procedure: as §1, §2, §3, §4

[9] = target: T8, CSNK1D (Homo sapiens, UniProt P48730); experiment: Liability panel screening by DSF: CSNK1D; type: binding; conditions: DSF, 20 µM, n=2; read-out: Mean ΔTM CSNK1D
T8 construct: made in house
T8 sequence (P48730 whole entry, species assumed): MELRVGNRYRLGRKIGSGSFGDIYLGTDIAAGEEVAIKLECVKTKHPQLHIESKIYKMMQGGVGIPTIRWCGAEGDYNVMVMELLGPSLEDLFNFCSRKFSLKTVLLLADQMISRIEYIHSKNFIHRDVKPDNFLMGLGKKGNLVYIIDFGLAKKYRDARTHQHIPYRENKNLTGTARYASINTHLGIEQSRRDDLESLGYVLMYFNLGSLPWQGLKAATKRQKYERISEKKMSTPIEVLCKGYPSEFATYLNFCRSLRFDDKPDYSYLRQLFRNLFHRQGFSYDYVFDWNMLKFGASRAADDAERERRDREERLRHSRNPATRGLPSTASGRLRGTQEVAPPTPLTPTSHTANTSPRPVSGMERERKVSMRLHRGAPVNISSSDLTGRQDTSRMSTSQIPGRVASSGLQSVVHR
Procedure: as §1, §2, §3, §4

[10] = target: T9, MAPK1 (Homo sapiens, UniProt P28482); experiment: Liability panel screening by DSF: MAPK1; type: binding; conditions: DSF, 20 µM, n=2; read-out: Mean ΔTM MAPK1
T9 construct: made in house
T9 sequence (P28482 whole entry, species assumed): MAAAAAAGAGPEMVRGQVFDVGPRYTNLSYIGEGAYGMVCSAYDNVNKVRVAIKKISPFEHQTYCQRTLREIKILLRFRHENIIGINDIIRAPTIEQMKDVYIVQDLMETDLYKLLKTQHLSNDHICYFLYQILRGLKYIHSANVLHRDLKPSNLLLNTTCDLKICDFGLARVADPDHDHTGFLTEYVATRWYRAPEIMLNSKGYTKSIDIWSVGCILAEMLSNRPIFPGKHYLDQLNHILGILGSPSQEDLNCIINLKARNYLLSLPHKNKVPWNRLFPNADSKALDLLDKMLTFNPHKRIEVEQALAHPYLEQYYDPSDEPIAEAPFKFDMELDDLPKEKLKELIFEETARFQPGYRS
Procedure: as §1, §2, §3, §4

[11] = target: T10, TRIM24 (Homo sapiens, UniProt O15164); experiment: Liability panel screening by DSF: TRIM24; type: binding; conditions: DSF, 20 µM, n=2; read-out: Mean ΔTM TRIM24
T10 construct: This panel comprised ten highly ligandable kinases and bromodomains; made in house
T10 sequence (O15164 899-1004 limits assumed): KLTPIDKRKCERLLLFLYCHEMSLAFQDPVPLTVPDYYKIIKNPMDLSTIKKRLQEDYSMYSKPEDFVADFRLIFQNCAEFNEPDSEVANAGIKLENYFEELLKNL
Procedure: as §1, §2, §3, §4

[12] = system: NF-κB activity in HEK293 NF-κB reporter cells; experiment: NF-kB activity assay (GFP reporter, ionomycin/PMA); type: cell-based; conditions: n=3
Procedure: Fig. 6 Application of the NR3 CG set.
After 24 h, cells were incubated with the test compounds solubilized with 0.1% DMSO in the same medium without puromycin. After 4 h incubation, ionomycin (100 ng/mL) and phorbol-12-myristat-13-acetate (PMA, 10 ng/mL) was added, and the cells were imaged for confluence and GFP expression every 90 min. over 24 h using a Tecan SPARK Cyto (Tecan). The number of GFP expressing cells was normalized to confluence in each sample. Each sample was repeated in three biologically independent experiments.

[13] = system: ATF6 activity in Hela ATF6 reporter cells; experiment: Endoplasmic reticulum stress assay (ATF6 Renilla luciferase reporter, tunicamycin); type: cell-based; conditions: for activity at 1 µM: Homo sapiens, HeLa, single replicates n=1 to n=5, read-out: ER stress [rel. ATF6 activity]
Procedure: After 24 h, cells were incubated with the test compounds solubilized with 0.1% DMSO in the same medium without puromycin. After 4 h incubation, tunicamycin (100 ng/mL) was added. After another 18 h incubation, cells were assayed for renilla luminescence using DualGlo reagent (Promega) on a Tecan SPARK Cyto (Tecan). Test samples were normalized to the 0.1% DMSO control. Each sample was repeated in five biologically independent experiments.

[14] = system: HEK293T cells; experiment: Cytotoxicity: metabolic activity (WST-8 / CCK-8 assay); conditions: 1 µM; HEK293T, 24 h; WST-8; normalized to 0.1% DMSO; single replicates
[15] = system: HEK293T cells; experiment: Cytotoxicity: growth-rate (change in confluence over 24 h); conditions: 1 µM, normalized to 0.1% DMSO control, single replicates (n=1...)
[16] = system: HEK293T cells; experiment: Cytotoxicity: apoptosis induction (caspase-3/7 DEVD fluorogenic DNA dye); conditions: 1 µM; HEK293T, 24 h; apoptotic cell count normalized to 0.1% DMSO; single replicates

| SMILES | Necrosis induction [NI] [1] | ΔTm at 20 µM [2] | ΔTm at 20 µM [3] | ΔTm at 20 µM [4] | ΔTm at 20 µM [5] | ΔTm at 20 µM [6] | ΔTm at 20 µM [7] | ΔTm at 20 µM [8] | ΔTm at 20 µM [9] | ΔTm at 20 µM [10] | ΔTm at 20 µM [11] | Mean NFκB response ([12]; 1 µM, 1,5 h) | Mean NFκB response ([12]; 1 µM, 4,5 h) | Mean NFκB response ([12]; 1 µM, 7,5 h) | Mean NFκB response ([12]; 1 µM, 10,5 h) | Mean NFκB response ([12]; 1 µM, 13,5 h) | Mean NFκB response ([12]; 1 µM, 16,6 h) | Mean NFκB response ([12]; 1 µM, 19,5 h) | Mean NFκB response ([12]; 1 µM, 22,5 h) | Mean NFκB response ([12]; 1 µM, 3 h) | other results |
| --- | --- | --- | --- | --- | --- | --- | --- | --- | --- | --- | --- | --- | --- | --- | --- | --- | --- | --- | --- | --- | --- |
| O=C(/C=C/c1ccc(O)cc1)c1ccc(O)cc1O [Isoliquiritigenin] | 0.85 and 0.80 and 0.45 and 1.05 | 6.6 °C | 1.81 °C | 1.64 °C | 1.26 °C | 2.87 °C | 1.51 °C | 0.82 °C | 1.31 °C | 1.33 °C | -0.0317 °C | 3578.42 GFP+-cells/confluence ∙ 1000 | 4286.96 GFP+-cells/confluence ∙ 1000 | 9277.37 GFP+-cells/confluence ∙ 1000 | 19586.05 GFP+-cells/confluence ∙ 1000 | 28313.33 GFP+-cells/confluence ∙ 1000 | 34970.00 GFP+-cells/confluence ∙ 1000 | 39776.67 GFP+-cells/confluence ∙ 1000 | 43150.00 GFP+-cells/confluence ∙ 1000 | 3834.99 GFP+-cells/confluence ∙ 1000 | Mean NFκB response ([12]; 1 µM, 6 h): 5800.94 GFP+-cells/confluence ∙ 1000; Mean NFκB response ([12]; 1 µM, 9 h): 14742.34 GFP+-cells/confluence ∙ 1000; Mean NFκB response ([12]; 1 µM, 12 h): 24113.33 GFP+-cells/confluence ∙ 1000; Mean NFκB response ([12]; 1 µM, 15 h): 32050.00 GFP+-cells/confluence ∙ 1000; Mean NFκB response ([12]; 1 µM, 18 h): 37423.33 GFP+-cells/confluence ∙ 1000; Mean NFκB response ([12]; 1 µM, 21 h): 41230.00 GFP+-cells/confluence ∙ 1000; Mean NFκB response ([12]; 1 µM, 24 h): 44476.67 GFP+-cells/confluence ∙ 1000; activity at 1 µM [13]: 96%; Metabolic activity [MA] [14]: 1.06 and 1.13 and 1.02 (2×) and 1.07 and 1.01 and 1.10 and 1.11; Growth rate [GR] [15]: 0.68 and 1.38 and 0.82 and 1.00 and 0.76 and 0.96 and 1.05 and 0.37 and 0.91 and 1.86; Apoptosis induction [AI] [16]: 0.29 and 1.26 and 0.88 and 1.02 and 0.64 and 1.54 |
| Oc1ccc(-c2nc3cc(O)cc(Br)c3o2)cc1 [WAY200070] | 0.70 and 0.57 and 0.78 and 0.74 | 2.05 °C | 0.19 °C | 1.93 °C | 1.16 °C | 3.58 °C | 0.55 °C | 2.12 °C | 2.57 °C | -0.9 °C | 0.24 °C | 2392.96 GFP+-cells/confluence ∙ 1000 | 3166.63 GFP+-cells/confluence ∙ 1000 | 7710.70 GFP+-cells/confluence ∙ 1000 | 19182.75 GFP+-cells/confluence ∙ 1000 | 27828.42 GFP+-cells/confluence ∙ 1000 | 34347.41 GFP+-cells/confluence ∙ 1000 | 38770.94 GFP+-cells/confluence ∙ 1000 | 41785.25 GFP+-cells/confluence ∙ 1000 | 2570.72 GFP+-cells/confluence ∙ 1000 | Mean NFκB response ([12]; 1 µM, 6 h): 4284.26 GFP+-cells/confluence ∙ 1000; Mean NFκB response ([12]; 1 µM, 9 h): 13724.58 GFP+-cells/confluence ∙ 1000; Mean NFκB response ([12]; 1 µM, 12 h): 23519.76 GFP+-cells/confluence ∙ 1000; Mean NFκB response ([12]; 1 µM, 15 h): 31227.07 GFP+-cells/confluence ∙ 1000; Mean NFκB response ([12]; 1 µM, 18 h): 36753.27 GFP+-cells/confluence ∙ 1000; Mean NFκB response ([12]; 1 µM, 21 h): 40136.06 GFP+-cells/confluence ∙ 1000; Mean NFκB response ([12]; 1 µM, 24 h): 43256.26 GFP+-cells/confluence ∙ 1000; ATF6 activity (tunicamycin-induced endoplasmic reticulum stress) ([13]; Hela ATF6 reporter cells, tunicamycin 100 ng/mL, 18 h, compounds at recommended concentrations, n = 5): failed to reduce ATF6 activity; activity at 1 µM [13]: 92%; Metabolic activity [MA] [14]: 1.01 (2×) and 0.90 and 0.92 and 0.96 and 0.97 and 1.05 and 1.00; Growth rate [GR] [15]: 0.70 and -0.18 and 0.97 and 1.02 and 1.09 and 1.00 and 1.07 and 0.46 and 0.96 and -0.95; Apoptosis induction [AI] [16]: 0.59 and 0.50 and 0.47 and 0.71 and 1.22 and 1.35 |
